Assay results taken from patent publication US11072596B2, “Poly(ADP-ribose) polymerase inhibitor, preparation method and use” (SELECTION BIOSCIENCE LLC, priority 2017, dated 2021).

Target: T1, PARP1 (Homo sapiens, UniProt P09874)
T1 construct: purchased BPS 80580
Experiment: PARP1 Colorimetric Assay (PARP-1 kinase inhibitory activity)
Assay type: biochemical
Details: PARP1 colorimetric assay kit, 1 hour at room temperature; read-out: PARP1 (in vitro enzymatic inhibitory activity, IC50)
Method: PARP1 kinase activity was tested by the following method:
PARP1 Colorimetric Assay Kit (BPS, Cat #80580)
1. PARP1 Colorimetric Assay
2) 50 μL of diluted coating solution was added to each well for overnight at 4° C.
4) 200 μL of blocking buffer was added to each well and incubated at room temperature for 90 minutes.
1) A reaction solution was prepared in a ratio of […] 2.5 μL 10×PARP buffer+2.5 μL 10×PARP Assay mixture+5 μL Activated DNA+15 μL deionized water per well, and 25 μL of the reaction solution was added to each well (see Table 1).
4) 100 μL of colorimetric HRP substrate was added to each well and reacted at room temperature for 20 minutes.
5) 100 μL of 2 M H2SO4 was added to each well and OD 450 nm was read on a microplate reader.

T1 sequence (P09874 whole entry): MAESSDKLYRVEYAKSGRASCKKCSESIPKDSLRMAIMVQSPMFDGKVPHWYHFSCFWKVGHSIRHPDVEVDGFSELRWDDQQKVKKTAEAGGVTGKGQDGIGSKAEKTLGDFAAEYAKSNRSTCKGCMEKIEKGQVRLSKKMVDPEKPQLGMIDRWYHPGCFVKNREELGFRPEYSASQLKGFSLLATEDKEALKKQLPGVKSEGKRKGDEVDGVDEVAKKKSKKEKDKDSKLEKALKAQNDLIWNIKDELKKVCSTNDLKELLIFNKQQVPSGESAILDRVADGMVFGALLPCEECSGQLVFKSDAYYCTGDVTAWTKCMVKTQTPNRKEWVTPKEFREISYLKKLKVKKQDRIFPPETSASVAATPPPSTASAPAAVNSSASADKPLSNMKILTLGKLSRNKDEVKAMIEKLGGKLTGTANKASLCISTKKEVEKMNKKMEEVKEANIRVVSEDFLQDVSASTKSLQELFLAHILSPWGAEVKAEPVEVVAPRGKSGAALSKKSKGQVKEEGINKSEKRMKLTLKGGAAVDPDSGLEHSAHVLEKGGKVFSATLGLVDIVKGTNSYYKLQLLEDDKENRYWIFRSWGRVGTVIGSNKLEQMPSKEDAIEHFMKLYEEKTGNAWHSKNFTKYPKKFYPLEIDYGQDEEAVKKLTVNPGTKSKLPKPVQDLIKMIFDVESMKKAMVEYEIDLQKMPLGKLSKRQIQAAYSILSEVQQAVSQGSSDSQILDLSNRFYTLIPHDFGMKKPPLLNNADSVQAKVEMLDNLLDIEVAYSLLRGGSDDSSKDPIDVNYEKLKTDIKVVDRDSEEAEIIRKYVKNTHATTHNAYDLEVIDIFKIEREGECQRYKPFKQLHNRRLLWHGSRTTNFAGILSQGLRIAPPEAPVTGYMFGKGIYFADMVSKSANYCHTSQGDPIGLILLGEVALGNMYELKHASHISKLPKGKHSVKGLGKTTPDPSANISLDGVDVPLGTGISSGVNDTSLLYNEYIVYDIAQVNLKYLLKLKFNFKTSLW

IC50: < 100 nM
SMILES: NC(=O)c1cccc2cn(-c3ccc([C@]4(F)CCCNC4)cc3)nc12 (single isomer, unassigned) [Example 23, (R or S)-2-(4-(3-fluoropiperidin-3-yl)phenyl)-2H-indazole-7-carboxamide]
